Source: publication PMC9313110, “Modulating the Fibrillization of Parathyroid-Hormone (PTH) Peptides: Azo-Switches as Reversible and Catalytic Entities” (Biomedicines, 2022)
Values after ≈ are worked out from the molar mass of the structure shown. Starred links: 1 amine or outer side, 2 acyl side, 3 side chain; linkers in the order of their positions; H or OH if unused. Non-standard residues stand in square brackets, D forms with d. Residues, ends and D or L forms follow the SMILES beside them. X3 = O=C(c1cccc(N=Nc2ccc(CN[*:1])cc2)c1)[*:2]

What was measured:
[1] = in the dark; ref [41],[42]; cited from earlier work
[2] = format: physicochemical
Text: We first studied the photophysical properties of the cis-trans-isomerization of AzoPTH25–37 (Figure 1b) by UV/Vis spectroscopy and HPLC analysis in pure water in order to minimize effects of a potential self-assembly and to quantify the generated amounts of the respective cis/trans-modified peptides before and after photoswitching. The UV/Vis spectra for the pure isomers (Figure S6) were separated from the spectra of trans-enriched AzoPTH25–37 in the thermodynamically stable state after synthesis and in the cis-enriched photostationary state (PSS, Figure 3) with Wolfram Mathematica 12.2. […] Both isomers display two isobestic points at 278 nm and 388 nm. They represent in the thermodynamically stable state a cis-trans ratio of 3:97. Under irradiation with UV light (340 nm), the cis-content could be increased of up to 82% in the cis-enriched PSS. Visible light (405 nm) yields 76% of the trans-isomer in the trans-enriched PSS via the back reaction. The difference of the trans-content between the trans-enriched PSS at 405 nm and the thermodynamically stable state arises from the overlapping of the n → π* transitions of both isomers at this wavelength. The rate of thermal cis-to-trans isomerization of AzoPTH25–37 follows first-order kinetics, and was determined by monitoring the increase of the π → π* absorption band at 327 nm (Figure S7) via time-dependent UV measurements.
2.3. […]

[3] = Maximum solubility in fibrillization buffer; format: physicochemical; conditions: 50 mM Na2HPO4 buffer (pH 7.4), UV-Vis absorption (ε = 49310 M-1cm-1 at 205 nm for PTH25-37, ε = 13000 M-1cm-1 at 327 nm for 3,4'-AMPB peptides)
Description: ThT-monitored fibrillization assays of artificial peptides and mixtures with PTH25–37 were investigated by fluorescence intensity measurements using thioflavin T (ThT) as fluorescent dye. Lyophilized peptides were dissolved in 50 mM Na2HPO4 buffer solution with a pH value of 7.4 in a concentration of 2 mg/mL and kept on ice for the next steps. The samples were centrifuged at 13,000× […] for 10 s and the concentrations were determined with a JASCO V-660 absorbance spectrometer (JASCO, Pfungstadt, Germany; PTH25–37 by absorbance at 205 nm and the molar extinction coefficient of 49,310 cm^−1M^−1; trans-AzoPTH25–37 by absorbance at 327 nm and the molar extinction coefficient of 13,000 cm^−1M^−1). Cis-AzoPTH25–37 was produced as described before. The solutions were centrifuged at 10,000 rpm for 1 h at 4 °C, the supernatant was transferred to another tube. The protein solutions were mixed in the desired ration and diluted with 50 mM Na2HPO4 buffer (pH 7.4) to obtain final concentrations of 0/100 μM PTH25–37, 50 μM ThT, and 0/10/20/50/100 μM AzoPTH25–37. For each sample, a total volume of 480 μL was prepared and 3 × 150 μL were transferred to a medium binding 96-well plate (Greiner Bio-One, Kremsmünster, Austria). The plate was sealed with a microplate cover. The fluorescence intensity was monitored at 37 °C using a BMG FLUOStar Omega multi-mode plate reader (BMG LABTECH, Ortenberg, Germany) using fluorescence excitation and emission wavelengths at 460 nm and 485 nm, respectively. One measurement cycle of 5 min consisted of double-orbital shaking for 150 s and incubating for 150 s.
2. Peptide Characterisation
Table S1: Primary sequence and solubility in 50 mM Na2PO4 buffer (pH 7.4) of peptides AzoPTH25-37 and SP1-
peptide primary sequencea solubility [μM]b
a Azo = 3,4’-AMPB; b maximum solubility was determined via UV-Vis absorption spectroscopy
2.2. HPLC- and MALDI-ToF-data
Figure S1: (A) HPLC-trace of AzoPTH25-37 (cis-isomer at 5.353, trans-isomer at 5.530). (B) MALDI-spectrum

[4] = ThT-monitored fibrillization assay of the pure peptides; format: physicochemical; conditions: pure peptide 100 μM; 50 μM ThT; 50 mM Na2HPO4, pH 7.4; 37 °C; fluorescence ex 460 nm/em 485 nm; average of triplets
Description: ThT-monitored fibrillization assays of artificial peptides and mixtures with PTH25–37 were investigated by fluorescence intensity measurements using thioflavin T (ThT) as fluorescent dye. Lyophilized peptides were dissolved in 50 mM Na2HPO4 buffer solution with a pH value of 7.4 in a concentration of 2 mg/mL and kept on ice for the next steps. The samples were centrifuged at 13,000× […] for 10 s and the concentrations were determined with a JASCO V-660 absorbance spectrometer (JASCO, Pfungstadt, Germany; PTH25–37 by absorbance at 205 nm and the molar extinction coefficient of 49,310 cm^−1M^−1; trans-AzoPTH25–37 by absorbance at 327 nm and the molar extinction coefficient of 13,000 cm^−1M^−1). Cis-AzoPTH25–37 was produced as described before. […] The fluorescence intensity was monitored at 37 °C using a BMG FLUOStar Omega multi-mode plate reader (BMG LABTECH, Ortenberg, Germany) using fluorescence excitation and emission wavelengths at 460 nm and 485 nm, respectively. […]
In order to determine the kinetics of fibril formation of both modified AzoPTH25–37 isomers a thioflavin T (ThT)-monitored fibrillization assay was conducted and compared to PTH25–37. […] Causing a large red shift of fluorescence excitation of ThT, which in turn enables the selective excitation of amyloid fibril-bound ThT and therefore the in situ observation of fibril formation. […]

Row | solubility (maximum solubility) [3] | SMILES | also measured
1 |  | NCc1ccc(N=Nc2cccc(C(=O)O)c2)cc1 [3,4′-AMPB, 3-{[(4-aminomethyl)phenyl]diazenyl}benzoic acid] | half-life time of thermal back-isomerization of the photoswitch [1]: more than 20 h
2 | 240 µM (≈ 409 µg/mL) | CC(C)C[C@H](NC(=O)[C@H](C)NC(=O)[C@@H](NC(=O)[C@H](Cc1ccccc1)NC(=O)[C@H](CC(N)=O)NC(=O)[C@H](Cc1c[nH]cn1)NC(=O)c1cccc(N=Nc2ccc(CNC(=O)[C@H](CC(=O)O)NC(=O)[C@H](CCC(N)=O)NC(=O)[C@H](CC(C)C)NC(=O)[C@H](CCCCN)NC(=O)[C@H](CCCCN)NC(=O)[C@@H](N)CCCNC(=N)N)cc2)c1)C(C)C)C(=O)O [AzoPTH25–37] (H-RKKLQD[X3]HNFVAL-OH) | photostability in the dark [2]: more than 20 h; solubility (maximum solubility) ([3]; listed as AzoPTH25-37): 250 µM (≈ 426 µg/mL)
3 | > 1000 µM | CC(C)C[C@H](NC(=O)[C@H](C)NC(=O)[C@@H](NC(=O)[C@H](Cc1ccccc1)NC(=O)[C@H](CC(N)=O)NC(=O)[C@H](Cc1c[nH]cn1)NC(=O)[C@@H](NC(=O)[C@H](CC(=O)O)NC(=O)[C@H](CCC(N)=O)NC(=O)[C@H](CC(C)C)NC(=O)[C@H](CCCCN)NC(=O)[C@H](CCCCN)NC(=O)[C@@H](N)CCCNC(=N)N)C(C)C)C(C)C)C(=O)O [PTH25–37] (H-RKKLQDVHNFVAL-OH) | tchar (time at which 50% of the maximum fluorescence was reached) [4]: 10.9 h; tlag (lag time, time before an increase in the fluorescence signal occurs) [4]: 7.2 h
4 | 60 µM (≈ 108 µg/mL) | CC(C)C[C@H](NC(=O)[C@H](C)NC(=O)[C@@H](NC(=O)[C@H](Cc1ccccc1)NC(=O)[C@H](CC(N)=O)NC(=O)[C@H](Cc1c[nH]cn1)NC(=O)[C@@H](NC(=O)c1cccc(N=Nc2ccc(CNC(=O)[C@H](CC(=O)O)NC(=O)[C@H](CCC(N)=O)NC(=O)[C@H](CC(C)C)NC(=O)[C@H](CCCCN)NC(=O)[C@H](CCCCN)NC(=O)[C@@H](N)CCCNC(=N)N)cc2)c1)C(C)C)C(C)C)C(=O)O [SP1] (H-RKKLQD[X3]VHNFVAL-OH) | 
5 | 55 µM (≈ 99.3 µg/mL) | CC(C)C[C@H](NC(=O)[C@H](C)NC(=O)[C@@H](NC(=O)[C@H](Cc1ccccc1)NC(=O)[C@H](CC(N)=O)NC(=O)[C@H](Cc1c[nH]cn1)NC(=O)c1cccc(N=Nc2ccc(CNC(=O)[C@@H](NC(=O)[C@H](CC(=O)O)NC(=O)[C@H](CCC(N)=O)NC(=O)[C@H](CC(C)C)NC(=O)[C@H](CCCCN)NC(=O)[C@H](CCCCN)NC(=O)[C@@H](N)CCCNC(=N)N)C(C)C)cc2)c1)C(C)C)C(=O)O [SP2] (H-RKKLQDV[X3]HNFVAL-OH) | 
6 | 35 µM (≈ 59.2 µg/mL) | CC(C)C[C@H](NC(=O)[C@H](C)NC(=O)[C@@H](NC(=O)[C@H](Cc1ccccc1)NC(=O)[C@H](CC(N)=O)NC(=O)[C@H](Cc1c[nH]cn1)NC(=O)[C@@H](NC(=O)c1cccc(N=Nc2ccc(CNC(=O)[C@H](CCC(N)=O)NC(=O)[C@H](CC(C)C)NC(=O)[C@H](CCCCN)NC(=O)[C@H](CCCCN)NC(=O)[C@@H](N)CCCNC(=N)N)cc2)c1)C(C)C)C(C)C)C(=O)O [SP3] (H-RKKLQ[X3]VHNFVAL-OH) | 
7 | 25 µM (≈ 39.8 µg/mL) | CC(C)C[C@H](NC(=O)[C@H](C)NC(=O)[C@@H](NC(=O)[C@H](Cc1ccccc1)NC(=O)[C@H](CC(N)=O)NC(=O)[C@H](Cc1c[nH]cn1)NC(=O)c1cccc(N=Nc2ccc(CNC(=O)[C@H](CCC(N)=O)NC(=O)[C@H](CC(C)C)NC(=O)[C@H](CCCCN)NC(=O)[C@H](CCCCN)NC(=O)[C@@H](N)CCCNC(=N)N)cc2)c1)C(C)C)C(=O)O [SP4] (H-RKKLQ[X3]HNFVAL-OH) | 
